Melting point data for 35 compounds are collected here from a melting point compilation (Tetko et al.; mined from patent text by program, amines drawn as free bases though some values may be those of a salt).

For orientation: melting point means the temperature of the solid-liquid transition. Compound `CCn1ccc2ncnc(Oc3ccc(NC(=O)Nc4cccc(C(F)(F)F)c4)c(Cl)c3)c21` gave a melting point of 172 to 176 °C.

With `Clc1ccc(CCC(Cn2ccnc2)OCC=Cc2ccccc2)cc1` (stereo not given), the melting point lay within 115 to 116 °C.

As to `CCCCOC(=O)c1ccc2ccc(C=O)nc2c1OC(=O)C(C)(C)C`, the melting point amounted to 108 °C.

For the compound `CCOc1cccc(-n2nc(C)c3c(O)c(C(=O)c4ccccc4)cnc32)n1`, the melting point fell in the range of 160 to 162 °C.

`O=C1CC(c2ccccc2)NC(=O)C1C(=O)c1ccccc1[N+](=O)[O-]` (stereo not given) came in with a melting point of 146 to 150 °C.

With `CC(C)(C)ON(O)C(=O)C(C)(C)CSc1ccc(Oc2ccc(Cl)cn2)cc1`, the melting point fell in the range of 90.8 to 91.9 °C.

Turning to `Cc1cc(-c2c(F)cc3c(=O)c(Cc4c(O)cccc4O)cn(C4CC4)c3c2F)cc(C)n1`, the melting point lay within 308 to 310 °C.

`COc1cc(NC(=O)CCN2CCCN(CCC(=O)Nc3cc(OC)c(OC)c(OC)c3)CC2)cc(OC)c1OC` showed a melting point of 135 to 137 °C.

`COC(=O)c1cc2c(O)c(C(=O)NCc3ccc(Cl)cc3)cnc2nc1C`: the melting point fell in the range of 265 to 267 °C.

`O=C1Nc2ccc(Cl)cc2C1(Cl)c1cccc(F)c1F` (stereo not given) yielded a melting point of 248 °C.

In the case of `CCCCCCCCCCCCCCCCCCNCP(=O)(O)O`, the melting point fell in the range of 108 to 112 °C.

The compound `Cc1cnn(CC(=O)O)c1OCCCc1cn(-c2ccc(C(F)(F)F)cn2)nc1C(C)C` registered a melting point of 123 to 124 °C.

Turning to `O[C@@H]1CNC[C@H]1Sc1ccccc1` (relative stereo), the melting point lay in the range of 140 to 141 °C.

The compound `CCOC(=O)c1cc(-c2ccccc2)nc2c([N+](=O)[O-])cccc12` had a melting point of 138 to 140 °C.

Compound `COc1ccc2[nH]c(SCC3(N4CCCC4)NC=NC(N4CCCC4)=C3C)nc2c1` (stereo not given) came in with a melting point of 104 to 106 °C.

The compound `CCC(=N)c1c(O)cc(-c2ccccc2)n(C)c1=O` had a melting point of 145 to 147 °C.

In turn, `CC(C)(O)C#Cc1ncn2c1[C@@H]1CCCN1C(=O)c1c(Br)cccc1-2` had a melting point of 227 to 228 °C.

With `CCOC(=O)COc1ccc(C[C@H](C)NS(=O)(=O)c2ccccc2)cc1`, the melting point was in the range of 109 to 110 °C.

In the case of `Cc1ncncc1C(=O)Nc1ccc(-n2nc(C(F)(F)F)cc2C2CC2)c(F)c1`, the melting point is 101 to 103 °C.

The compound `CCOC(=O)c1ccc(-c2c(Cl)c(CN3C(=O)CCC3=O)nc3sc4c(c23)CCNC4)cc1` had a melting point of 213 to 214 °C.

`O=C(O)C1=Cc2cc(OCc3ccccc3)c(OCc3ccccc3)cc2CC1` displayed a melting point of 173 to 176 °C.

The compound `CCCCCCCCCCCCCC(O)CNCCCCCCNCC(O)CCCCCCCCCCCCC` (stereo not given) displayed a melting point of 117 to 124 °C.

`CCOC(=O)C(=O)NCC(=O)C(C)(C)C` registered a melting point of 82 to 85 °C.

Regarding `N#Cc1ccc(OCCCCCCCCCCCCOc2ccc(C#N)c(C#N)c2)cc1C#N`, the melting point lay within 104 to 107 °C.

Compound `COc1ccc(Cc2ncc(CO)c3cc(OC)c(OC)cc23)cc1OC` yielded a melting point of 140 to 146 °C.

In turn, `O=C1C(=O)c2ccccc2C2=C1SCC1(CCN(C(=O)c3cccc(Cl)c3)CC1)O2` had a melting point of 155 to 158 °C.

The compound `FC(F)(F)c1ccc2nc(CN3CCN(c4ccc(Cl)cc4)CC3)cn2c1` gave a melting point of 128 to 135 °C.

Compound `Cc1ccc(NCc2ccc(N(C)C)cc2)c(C)c1` came in with a melting point of 79 to 80 °C.

As for `CCc1cc(NC(=O)N2CCN(c3cc(OC)cc(OC)c3)CC2)c(N2CCNCC2)nc1C`, the melting point lay within 68 to 70 °C.

As for `Brc1cccc(C2Cc3cnc(Nc4ccc(CCNCc5ccccc5)cc4)nc3-c3ccccc32)c1` (stereo not given), the melting point is 98 to 100 °C.

Consider `CC(=O)NC(Cc1ccc(OCCc2nc(-c3ccccc3)oc2C)cc1)C(N)=O` (stereo not given), for which the melting point lay in the range of 224 to 226 °C.

`CC(=O)OC1CSC(Oc2cccnc2-c2nnn[nH]2)C(OC(C)=O)C1OC(C)=O` (stereo not given) gave a melting point of 119 to 127 °C.

Compound `COC(=O)CCCc1cc2nc(Cl)ccc2n1S(=O)(=O)c1ccc(C)cc1Cl` displayed a melting point of 88 to 89 °C.

In turn, `COCCOc1ccc2c(C3C(=O)Nc4ccc(C#N)cc43)nccc2c1` (stereo not given) yielded a melting point of 214 to 219 °C.

`O=C(O)Cc1ccc(C(=O)c2cccc(C(F)(F)F)c2)s1` yielded a melting point of 120 °C.
